In PubChem BioAssay AID602272 (Broad Institute, 2012):
Active and inactive are the calls of the source.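 Rule for the calls: active = every repeat run shows inhibition with half-maximal dose at most twice the top dose tested; inconclusive = repeat runs disagree on the call; inactive = every repeat run inactive.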

What follows are molecules tested against Glycogen synthase kinase-3 beta (Homo sapiens) (UniProt P49841) (assay: human GSK3B enzyme activity inhibitors – biochemical, ADP-Glo luminescence, GST-GSK3beta, dry powder, selectivity assay for CDK5 tau phosphorylation inhibitor project, dose response (AID 602272)). Conditions: recombinant GST-GSK3beta, 60 min.
Glycogen synthase kinase-3 beta (Homo sapiens), sequence (P49841 whole entry, looked up): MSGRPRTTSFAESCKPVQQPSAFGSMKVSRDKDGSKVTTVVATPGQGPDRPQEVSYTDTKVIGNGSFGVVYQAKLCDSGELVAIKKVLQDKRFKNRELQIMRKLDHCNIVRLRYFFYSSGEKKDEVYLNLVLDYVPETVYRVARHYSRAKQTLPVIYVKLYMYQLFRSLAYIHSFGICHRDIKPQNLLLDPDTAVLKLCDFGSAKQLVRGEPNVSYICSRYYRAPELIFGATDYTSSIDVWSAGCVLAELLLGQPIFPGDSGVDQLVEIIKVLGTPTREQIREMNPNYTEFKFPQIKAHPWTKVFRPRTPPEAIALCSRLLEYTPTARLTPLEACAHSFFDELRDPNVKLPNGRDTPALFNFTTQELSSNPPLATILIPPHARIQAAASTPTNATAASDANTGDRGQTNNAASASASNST

Compound	AC50 [µM]
CC(C)(C)n1c(NC(=O)c2cccc(S(C)(=O)=O)c2)nc2ccccc21	18.9

Same assay, conditions: recombinant GST-GSK3beta, 60 min, at 30 µM (top of the series)

Compound	activity change, negative = inhibition
Cc1ccc(N2CCN(C(=O)c3ccc(Cl)cc3)CC2)nc1	inactive
COc1cccc(C(=O)N2CCN(c3ccccn3)CC2)c1	inactive
O=C(c1ccccc1)N1CCN(c2ccccn2)CC1	inactive
CCCn1c(NC(=O)c2ccc(OC)c(S(=O)(=O)N3CCCC3)c2)nc2ccccc21	inactive
CCCn1c(NC(=O)c2cccc(S(=O)(=O)N(C)C)c2)nc2ccccc21	inactive
COc1cc(C(=O)N2CCN(c3ccccc3)CC2)cc(OC)c1OC	inactive
O=C(c1ccc(Cl)cc1)N1CCN(c2ccc(C(F)(F)F)cn2)CC1	inactive
CCOc1cc(C(=O)N2CCN(c3ccccn3)CC2)cc(OCC)c1OCC	inactive
O=C(c1ccccc1Cl)N1CCN(c2ccccn2)CC1	inactive
O=C(C1CCCCC1)N1CCN(c2ccccn2)CC1	inactive
CC(C)C(=O)N1CCN(c2ccccn2)CC1	inactive
COc1cccnc1N1CCN(C(=O)c2ccc(Cl)cc2)CC1	inactive
Cc1ccc(C(=O)N2CCN(c3ccccn3)CC2)cc1	inactive
CCn1c(NC(=O)c2cccc(S(=O)(=O)NC)c2)nc2ccccc21	inactive
CCCn1c(NC(=O)c2ccc(Cl)c(S(=O)(=O)N3CCCC3)c2)nc2ccccc21	inactive
O=C(c1ccc(F)cc1)N1CCN(c2ccccn2)CC1	inactive
N#Cc1ccc(C(=O)N2CCN(c3ccccn3)CC2)cc1	inactive

Compound	activity change, negative = inhibition
c1ccc(N2CCNCC2)nc1	inactive
CCCn1c(NC(=O)c2cccc(S(=O)(=O)N3CCCCC3)c2)nc2ccccc21	inactive
Cc1ccnc(N2CCN(C(=O)c3ccc(Cl)cc3)CC2)c1	inactive
N#Cc1cccnc1N1CCN(C(=O)c2ccc(Cl)cc2)CC1	inactive
COc1ccnc(N2CCN(C(=O)c3ccc(Cl)cc3)CC2)c1	inactive
COCCC(=O)N1CCN(c2ccccn2)CC1	inactive
O=C(c1ccc(Cl)cc1)N1CCN(c2ncccc2C(F)(F)F)CC1	inactive
CCCn1c(NC(=O)c2cccc(S(=O)(=O)N(CC)CC)c2)nc2ccccc21	inactive
COc1ccc(C(=O)N2CCN(c3ccccn3)CC2)cc1	inactive
Cc1cccc(N2CCN(C(=O)c3ccc(Cl)cc3)CC2)n1	inactive
COc1cc(C(=O)N2CCN(c3ccccn3)CC2)cc(OC)c1OC	inactive
O=C(c1cccc(Cl)c1)N1CCN(c2ccccn2)CC1	inactive
N#Cc1ccc(N2CCN(C(=O)c3ccc(Cl)cc3)CC2)nc1	inactive
CCCCC(=O)N1CCN(c2ccccn2)CC1	inactive
O=C(c1ccc(Cl)cc1)N1CCN(c2ccccn2)CC1	inactive
O=C(c1ccc(Cl)cc1)N1CCN(c2cccc(C(F)(F)F)n2)CC1	inactive
